Source: US9499494B2, “Pyrimidine-2,4,6-triones for use in the treatment of amyotrophic lateral sclerosis” (Northwestern University, priority 2009, dated 2016)
Where a SMILES comes first, the peptide text is derived from it. The star is where a group is joined. Cbz = O=C(OCc1ccccc1)*

How the values were obtained:
Assay type in all cases: cell-based
[1] = test system: PC12 cells that express mutant G93A SOD1 as a YFP fusion protein; experiment: high throughput cytotoxicity protection assay; conditions: for EC50: Rattus norvegicus, PC-12, Table 1, fluorinated PYT compounds
Excerpt: Cultured cells are utilized to conduct high throughput assays for compounds that protect against mutant SOD1-induced cytotoxicity. Two assays are used: first, in the cytotoxicity protection assay, compounds are screened for their ability to protect cells from the cytotoxic effects of aggregated mutant SOD1, irrespective of mechanism of drug action. Second, in the protein aggregation assay, compounds are screened for their ability to reduce aggregation of mutant SOD1. The high throughput cytotoxicity protection assay is the primary screen and compounds active in the primary screen (and their analogs) move forward into the secondary screen for protein aggregation.
(§1) The high throughput cytotoxicity protection assay was carried out in PC12 cells that express mutant G93A SOD1 as a YFP fusion protein from a doxycycline-inducible promoter (Matsumoto et al., J. Cell. Biol. 2005, 171, 75). […] This idea was tested by examining the sensitivity of PC12 cells to SOD1 aggregates in the presence and absence of proteasome inhibitor MG132. PC12 cells expressing no SOD1, wild type SOD1, G85R SOD1 or G93A SOD1 were grown with or without MG132 (FIG. 1). […] In these cells, protein aggregation was detected after 24 h and loss of cell viability was detected at approximately 48 h. […] The ability of protein aggregates to induce cell death was examined by treating G93A SOD1-expressing cells with MG132 for 24 h, removing the MG132 by washing and assaying cell viability after another 24 h. Because the loss of cell viability was similar following MG132 removal (FIG. 1, part C), it is likely that mutant SOD1 aggregates contribute directly to cytotoxicity in PC12 cells.
(§2) PC12 cells expressing G93A SOD1 were treated with 100 nM MG132 with or without co-treatment with geldanamycin or radicicol. […] Statistical analysis of the data produced a Z′ value of 0.55, which would predict good performance as a positive control in a high throughput screen (Zhang et al. J. Biomol. Screen 1999, 4(2), 67-73).

[2] = test system: PC12 cells expressing no SOD1, wild type SOD1 and G85R SOD1; experiment: sensitivity of PC12 cells to proteasome inhibitor (cell viability); conditions: Rattus norvegicus, PC-12
Experimental: as §1

[3] = test system: PC12 cells expressing G93A SOD1; experiment: as above
Experimental: as §1

[4] = test system: PC12 cells expressing G85R SOD1; experiment: mutant SOD1 direct protein aggregation assay
Excerpt: Compounds that are active in the above assay could theoretically protect against mutant SOD1-induced cytotoxicity through a number of mechanisms, including the following: 1) Compounds could nonspecifically block or reverse protein aggregation via chaperone induction, as observed for radicicol and geldanamycin 2) Compounds could block or reverse the aggregation of a specific aggregated protein form 3) Compounds could interfere with an event downstream of protein aggregation that plays a critical role in mutant SOD1-induced cytotoxicity (e.g., proteasome function). 4) Compounds could act directly on SOD1 in a manner that prevents mutant SOD1 aggregation. These possibilities were tested using an assay that directly measures protein aggregation. In addition, unlike the high throughput cytotoxicity protection assay, the protein aggregation assay is based on G85R SOD1; this broadens the scope of the screening strategy, and should eliminate compounds with highly specific activity (i.e., G93A SOD1 limited) against protein aggregation.
In PC12 cells that express wild-type SOD1, SOD1 was diffusely localized throughout the cell (Matsumoto et al. J. Cell. Biol 2005, 171(1), 75-85). […]
To allow this assay to be used in a high-throughput manner, a Cellomics Arrayscan® high content microscopy system was used for screening and quantification. […]

[5] = test system: PC12 cells expressing G93A mutant SOD1; experiment: mutant SOD1 protein aggregation in G93A cells
Experimental: as §2
In PC12 cells that express wild-type SOD1, SOD1 was diffusely localized throughout the cell (Matsumoto et al. J. Cell. Biol 2005, 171(1), 75-85). […] Therefore, these effects are likely to be due to MG132-induced proteasome inhibition, and not due to an off-target effect of MG132.
The identification of a positive control is a crucial step in assay development. Thus, PC12 cells expressing G85R or G93A mutant SOD1 were treated with MG132 to induce protein aggregation, and then co-treated with candidate chemical suppressors of protein aggregation. […] Both compounds induce heat shock transcription factor HSF-1, which in turn induces the heat shock response (FIG. 4). Treatment with radicicol reduced the proportion of cells with aggregates from 75% to 25%, a sufficient difference to allow visual scoring for compounds with efficacy equal to or greater than radicicol.

[6] = G93A SOD1 cells treated with 100 nM MG132, co-treatment

O=C1CC(=O)N(CC(F)(F)c2ccc(C(F)(F)F)cc2)C(=O)N1CC(F)(F)c1ccc(C(F)(F)F)cc1
EC50 [1]: 2000 to 8000 nM

O=C1CC(=O)N(CC(F)(F)c2ccc(Cl)c(Cl)c2)C(=O)N1CC(F)(F)c1ccc(Cl)c(Cl)c1
EC50 [1]: 2000 to 8000 nM

O=C1CC(=O)N(CC(F)(F)c2ccc(Cl)cc2)C(=O)N1CC(F)(F)c1ccc(Cl)cc1
EC50 [1]: 2000 to 8000 nM

O=C1CC(=O)N(CC(F)(F)c2ccc(F)c(F)c2)C(=O)N1CC(F)(F)c1ccc(F)c(F)c1
EC50 [1]: 2000 to 8000 nM

CC(C)C[C@@H](C=O)NC(=O)[C@H](CC(C)C)NC(=O)[C@H](CC(C)C)NC(=O)OCc1ccccc1 [MG132] (Cbz-Leu-Leu-Leu-aldehyde)
IC50 [2]: ~400 nM
fold more sensitive than cells expressing no SOD1, wild type SOD1 or G85R SOD1 ([3]; G93A SOD1 cells): approximately 5 fold
IC50 ([3]; Rattus norvegicus, PC-12, read-out: IC50 (cell viability)): ~75 nM
cells containing protein aggregates ([4]; cells expressing G85R SOD1 treated with MG132): up to 75%
cells with protein aggregates ([5]; cells expressing G93A mutant SOD1 following treatment with MG132): ~75%

CC(C)C[C@H](NC(=O)[C@H](Cc1ccccc1)NC(=O)c1cnccn1)B(O)O [bortezomib]
sensitivity of PC12 cells to proteasome inhibition compared with MG132 [3]: Qualitatively similar results

C[C@@H]1C[C@H]2O[C@@H]2/C=C\C=C\C(=O)Cc2c(Cl)c(O)cc(O)c2C(=O)O1 [radicicol]
cell viability [1, 6]: increased cell viability in a dose-dependent manner
proportion of cells with aggregates after treatment ([4]; PC12 cells expressing G85R or G93A mutant SOD1, MG132-treated, 75% without co-treatment): 25%
formation of protein aggregates [5, 6]: reduced formation of protein aggregates
